In US12685315B2, “Herbicidal combination” (UPL do Brasil Industria e Comercio de Insumos Agropecuarios …, priority 2019, dated 2026):

How the values were obtained:
Commelina benghalensis = test: Field trial of triple mixes of amicarbazone, pre-emergence weed control; format: in vivo; details: dose g ai/ha: Amicarbazone 75, Mesotrione 38, Ametryn 250, mix AMC + AME + MST 75 + 38 + 250
Description: (§1) Field trials were done to evaluate the efficacy and synergism of the triple mixes of amicarbazone with other herbicides for the control of weeds in pre and post-emergence application.
(§2) The composition of the present invention was applied. This test was performed for species of weeds: Grasses namely BRADC=Brachiaria decumbens, CCHEC=Cenchrus echinatus, ELEIN=Eleusine indica, TRCIN=Digitaria insularis and Broadleaves namely IAQGR=Ipomoea grandifolia, EPHHL=Euphorbia heterophylla, COMBE=Commelina benghalensis. Data were collected at various period after application of the composition to the soil and calculated.

Eleusine indica = test: Field trial of triple mixes of amicarbazone, pre and post-emergence weed control; format: in vivo; details: Table 10, dose g ai/ha: Amicarbazone 75, Mesotrione 38, Ametryn 250, mix AMC + AME + MST 75 + 38 + 250
Description: as §1, §2

SMILES | % Control (Commelina benghalensis; Table 11, 21 DAA) [%] | % Control (Commelina benghalensis; Table 11, 28 DAA) [%] | % Control (Commelina benghalensis; Table 11, 35 DAA) [%] | % Control (Eleusine indica; Post-Emergence, 14 DAA) [%] | % Control (Eleusine indica; Post-Emergence, 21 DAA) [%] | % Control (Eleusine indica; Post-Emergence, 28 DAA) [%] | % Control (Eleusine indica; Pre-Emergence, 14 DAA) [%] | % Control (Eleusine indica; Pre-Emergence, 21 DAA) [%] | % Control (Eleusine indica; Pre-Emergence, 28 DAA) [%]
CCNc1nc(NC(C)C)nc(SC)n1 [Ametryn] | 15.0 | 8.8 | 2.5 | 53.8 | 27.5 | 22.5 | 51.3 | 42.5 | 35.0
CS(=O)(=O)c1ccc(C(=O)C2C(=O)CCCC2=O)c([N+](=O)[O-])c1 [Mesotrione] | 67.5 | 65.0 | 51.3 | 57.5 | 43.8 | 35.0 | 26.3 | 2.5 | 0.0
